In patent US20050214316A1 (priority 2003, published 2005):
Where two headings read alike, the source gives them in different places. Marks after values point to notes of the source that are not given here.

Experiments:
[1] = system: commercial broilers (trials 1 and 2), SPF broilers (trial 3); conditions: in vivo
2 week-old chickens = type: in vivo, chicken; conditions: for CBH-2 = (skin thickness, PHA-P injected foot) − (skin thickness, PSS injected foot) / CBH-1 = (skin thickness at 12 h post-injection, left foot) − (pre-injection skin thickness, left foot): 2 week-old chickens, mean ± standard deviation, n = 4; for CBH-1 = (skin thickness at 12 h post-injection, left foot) − (pre-injection skin thickness, left foot): PHA-P
[2] = system: commercial broilers (trials 1 and 2), SPF broilers (trial 3); conditions: in vivo; remark: listed apart in the source
[3] = system: commercial broilers (trials 1 and 2), SPF broilers (trial 3); type: in vivo, chicken; conditions: all three trials, vs saline controls
chickens = system: chickens; set-up: species or system chicken; conditions: in vivo
[4] = system: commercial broilers (trials 1 and 2), SPF broilers (trial 3); conditions: 7 dpi
[5] = system: commercial broilers (trials 1 and 2), SPF broilers (trial 3); conditions: in vivo; remark: listed apart in the source

`O=P1(N(CCCl)CCCl)NCCCO1` (stereo not shown) [CP, Cyclophosphamide monohydrate] was tested, and the “Proventriculus score (severity of proventricular lesions)” value [1] was 1.00^a, the “CBH-2 = (skin thickness, PHA-P injected foot) − (skin thickness, PSS injected foot)” value (2 week-old chickens; Trial 1, IBDV strain Variant E) was “.73 ± .01” and the “CBH-1 = (skin thickness at 12 h post-injection, left foot) − (pre-injection skin thickness, left foot)” value (“CBH-1 =” below) (2 week-old chickens; Trial 1, IBDV strain Variant E) was “.67 ± .07”. For the same compound, the “CBH-2 = (skin thickness, PHA-P injected foot) − (skin thickness, PSS injected foot)” value (2 week-old chickens; Trial 2, IBDV strain STC) was “.69 ± .2”, the “CBH-1 =” value (2 week-old chickens; Trial 2, IBDV strain STC) was “.69 ± .18” and the “CBH-2 = (skin thickness, PHA-P injected foot) − (skin thickness, PSS injected foot)” value (2 week-old chickens; Trial 3, IBDV strain STC) was “.31 ± .07”. The “CBH-1 =” value (2 week-old chickens; Trial 3, IBDV strain STC) was “.34 ± .06”, the CBH response (2 week-old chickens; vs saline control group) was “small reduction” and the clinical appearance [2] was “decreased feathering and appeared weak”. For the same compound, the bursa size [3] was “significantly smaller”, the “humoral immune response to NDV vaccination” value (chickens) was “significantly reduced” and the thymus size [4] was “smaller than the rest of the groups”. The bursal microscopic lesions [5] was “marked lymphocytic depletion and atrophy of the bursa”.
